In article PMC6315057, “Industrial scale high-throughput screening delivers multiple fast acting macrofilaricides” (Nature Communications, 2019):
≈ marks a conversion by molar mass, not a printed value. Where two headings read alike, the source gives them in different places.

Columns and labels:
[1] = Aqueous solubility in pH 7.4 PBS; format: physicochemical; conditions: for solubility: PBS pH 7.4, aqueous buffer, pH 7.4 PBS, read-out: Aqueous solubility in pH7.4 PBS
Description: (§1) The DMPK data used for triaging compounds, including LogD7.4, aqueous solubility, plasma protein binding, microsome and hepatocyte clearance measurements, were generated using the standard AstraZeneca UK high-throughput platform[37],[38].

[2] = Human plasma protein binding; format: in vitro ADME; conditions: for fraction unbound: plasma
Description: as §1

LogD7.4 = format: physicochemical; conditions: pH 7.4
Description: as §1

[3] = tested on: Wolbachia in C6/36 (wAlbB) cells; test: Secondary concentration response HTS (IC50) anti-Wolbachia screen in C6/36 (wAlbB) insect cells; format: cell-based, Wolbachia pipientis wAlbB (in Aedes albopictus C6/36 cells); conditions: 7-day incubation, 10-point concentration range
Description: Initially C6/36 (wAlbB) cells (insect cells stably infected with the Wolbachia target) from a single cryopreserved batch were recovered over 7 days prior to plating into 384-well assay ready plates (containing the test compounds), using a semi-automated process allowing for daily batches of ~150 plates, set up 4 days per week for 8 weeks. After a 7-day incubation period with the test compounds the plates were moved into the second fully automated stage (using the Agilent Technologies BioCel system) involving formaldehyde fixation, DNA staining of the insect cell nuclei (Hoechst) for toxicity analysis and antibody staining specific to the intracellular Wolbachia (wBmPAL primary antibody and far-red secondary antibody). In the final stage the fixed and stained plates from stage 2 were processed through automated data acquisition (High Res Biosolutions system, incorporating EnVision™ and acumen® plate readers). This industry standardised assay was then used to screen AstraZeneca’s full library of 1.3 million compounds within 10 weeks. In total this HTS included 30 × 3 week assays covering 3835 × 384-well plates. This primary HTS generated 20,255 hits defined as >80% reduction in Wolbachia with <60% toxicity to the host insect cell (eliminating false positives). This represents an overall hit rate of 1.56%. These compounds are depicted in chemical space in Fig. 2 (black points)[21].
The mosquito (Aedes albopictus) derived cell line C6/36 (ATCC® CRL 1660), stably infected with Wolbachia pipientis wAlbB (C6/36(wAlbB)), was maintained in Leibovitz L15 medium containing 2 mM L-glutamine, 1% nonessential amino acids, 2% tryptose phosphate broth and 20% heat-inactivated foetal bovine serum (FBS) at 26 °C[18]. This screen exclusively used cells from the large-scale cryopreserved batch produced as part of this campaign by culturing the cells at scale before cryopreservation (90% FBS and 10% DMSO). This produced a cell bank of 190 × 1 ml cryovials containing 3 × 10^7 cells per vial.
(§2) On day 0, a single cryovial was recovered and the cells washed before being transferred to a T225 cm^2 flask. After a 7-day recovery Wolbachia infection level (quality control (QC)) was checked by SYTO®11 DNA staining of both the host cell nuclei and intracellular Wolbachia. The end-point read out from the Operetta® high content imaging system (Perkin Elmer) was the percentage of cells infected with Wolbachia. This was obtained from cytoplasm texture analysis by the associated Harmony® software. Cells with a >50% of the population infected with Wolbachia were classed as having a good Wolbachia level and therefore used for screening through addition of 2000 cells per well into assay ready 384-well plates containing the test compounds. […] Each plate included on-board controls; vehicle/DMSO (total/maximum Wolbachia signal) or doxycycline 5 µM (null/minimum Wolbachia signal), resulting in single shot screening of 352 compounds per plate for the primary screen. […] QC plates were also created including full columns of the following controls; DMSO (total/max), 5 μM doxycycline (null/min), as well as 50 nM doxycycline (reference/medium Wolbachia signal). Daily batches contained ~150 compound plates in addition to the QC plates. Each compound plate was foil sealed before incubation for 7 days at 26 °C, 95% humidity and atmospheric air.
After 7 days of drug incubation, the plates were loaded into the fully automated BioCel system which performed the following additions; fixation and DNA staining (1.8% formaldehyde + 0.6 µg/ml Hoechst 33342, 20 min), permeabilisation (80 μl of PBS + 0.25% Triton-X 100, 30 min), blocking (PBS + 6% BSA, 40 min), overnight incubation in the Wolbachia-specific anti-wBmPAL primary antibody[34] […]

[4] = Human microsome clearance; format: in vitro ADME; conditions: for microsomal CLint: human microsomes
Description: as §1

Rat hepatocyte clearance = format: in vitro ADME
Description: as §1

THP-1 cells = test: Mammalian cell viability counter-screen (CellTiter-Blue); format: cell-based, human; conditions: 48 h, read-out: HTS IC50 mammalian toxicity
Description: The human monocytic THP-1 cell line (ATCC® TIB-202) used for mammalian cytotoxicity evaluation was routinely cultured in roller bottles. Growth media consisted of RPMI 1640 supplemented with 10% FBS and 2 mM L-glutamine. Cells were maintained at 37 °C with 95% humidity in 5% CO2 in a shaking incubator.
All compounds selected for secondary IC50 screen were tested in parallel for mammalian cell viability using the CellTiter-Blue® Cell Viability Assay. THP1 cells were removed from culture and plated at 1 × 10^4 cells/well (40 µl) into 384-well assay ready plates and incubated at 37 °C, 5% CO2 for 48 h at 95% humidity. After the addition of CellTiter-Blue Viability reagent (8 µl of a 1:6 dilution) the assay plates were incubated for a further 2 h before fluorescence detected using a PerkinElmer EnVision™ plate reader.

[5] = tested on: Wolbachia in C6/36 (wAlbB) cells; test: Confirmatory re-assessment in the insect cell screen (cell assay EC50); format: cell-based, Wolbachia pipientis wAlbB (in Aedes albopictus C6/36 cells); conditions: insect cell screen, re-sourced or re-synthesised samples
Description: To further validate the hit molecules from these 9 clusters, samples were sourced either from the AstraZeneca compound inventory or through re-synthesis. All 18 samples were characterised by nuclear magnetic resonance (NMR) and mass spectroscopy to confirm their chemical structures and by HPLC/LCMS to establish their purity (Supplementary Table 5 and Supplementary Data 1). These samples were also subject to confirmatory re-assessment in both the insect cell screen and Mf assays for anti-Wolbachia potency alongside confirmation of DMPK properties (LogD7.4, aqueous solubility in pH 7.4 PBS, human microsomal turnover, rat hepatocyte turnover and human plasma protein binding) (Fig. 4, Supplementary Figure 1 and Supplementary Table 4).
as §2

[6] = tested on: Wolbachia within Brugia malayi Mf; test: B. malayi microfilarial (Mf) in vitro anti-Wolbachia assay (wsp:gst qPCR); format: cell-based; conditions: B. malayi Mf, 6 days, read-out: Mf EC50
Description: The Mf were obtained by peritoneal lavage, using a catheter, of gerbils (Meriones unguiculatus) harbouring a patent infection of B. malayi. Mf were purified using a PD-10 desalting column (Fisher), centrifuged (311 RCF for 5 min at room temperature) before the addition of 8000 Mf/well of a 96-well plate (100 µl per well) in complete media consisting of RPMI supplemented with 10% FBS, 1% penicillin streptomycin and 1% amphotericin B. […] Each plate contained doxycycline (5 µM) and DMSO controls. After incubation at 37 °C for 6 days in 5% CO2, visual assessment of Mf motility was performed and scored from 0 to 4 per well (where 0 = no movement and 4 = highly motile). DNA extraction per sample was performed using the QIAmp DNA Mini Kit before quantitative PCR was performed to obtain the ratio of Wolbachia Surface Protein gene copy number (wsp) to Glutathione S-Transferase gene copy number (gst)[36]. The DNA was amplified using the primers as indicated in Supplementary Table 6.
The wsp:gst ratio data allowed for normalisation of the Wolbachia level to the Mf biomass for each well. The change in wsp:gst for each compound compared to the DMSO control was calculated before normalisation to the onboard doxycycline control to allow for inter-assay comparison.

| solubility [1] [µM] | fraction unbound [2] | logD (LogD7.4) | microsomal CLint ([4]; human) [µL/min/mg] | Rat hepatocytes CLint (Rat hepatocyte clearance) [µl/min/1x106 cells] | EC50 ([6]; Brugia malayi, 144 h) [nM] | Human plasma protein binding [2] [%] | LogD 7.4 (LogD7.4) | Human microsome CLint ([4]; human, microsomes) [µL/min/mg] | EC50 [6] [nM] | Solubility (in words) [1] | Metabolic stability (in words) ([4]; in vitro, system not given) | SMILES | IC50 ([3]; Wolbachia, 168 h) [nM] | IC50 (THP-1 cells; Homo sapiens) [nM] | EC50 ([5]; Wolbachia, C6/36) [nM] | IC50 [3] [nM] | IC50 (THP-1 cells) [nM] | EC50 [5] [nM] |
| --- | --- | --- | --- | --- | --- | --- | --- | --- | --- | --- | --- | --- | --- | --- | --- | --- | --- | --- |
| 756 (≈ 233 µg/mL) | 0.4 | 1.6 | 3.5 | 22.9 | > 5000 | – | – | – | – | – | – | Cc1csc(CN(C)c2nc3c(s2)C(=O)NCCC3)n1 [6B, 2-(methyl((4-methylthiazol-2-yl)methyl)amino)-5,6,7,8-tetrahydro-4H-thiazolo[5,4-c]azepin-4-one] | 594 | > 30600 | 897 | – | – | – |
| 105 (≈ 50.6 µg/mL) | 0.12 | 3 | 228 | 28.0 | > 5000 | – | – | – | – | – | – | O=C(Cc1cc(F)cc(F)c1)NCC(=O)NC1C(=O)Nc2ccccc2SC1c1ccccc1 (stereo not shown) [9A, 2-(3,5-difluorophenyl)-N-(2-oxo-2-((4-oxo-2-phenyl-2,3,4,5-tetrahydrobenzo[b][1,4]thiazepin-3-yl)amino)ethyl)acetamide] | 181 | > 30600 | 180 | – | – | – |
| – | – | – | – | 25.0 | – | 99.5 | 2.3 | 40.7 | 2220 | – | – | COCc1ccc(C(=O)Nc2ccc(CNC(=O)c3ccnn3C)cc2C)nc1 [7B, 5-(methoxymethyl)-N-(2-methyl-4-((1-methyl-1H-pyrazole-5-carboxamido)methyl)phenyl) picolinamide] | – | – | – | 2480 | > 30600 | 3070 |
| 6 (≈ 2.46 µg/mL) | 0.034 | 3.1 | > 300 | > 300 | > 5000 | – | – | – | – | – | – | CN(Cc1cccc(Br)c1)S(=O)(=O)c1ccc2c(c1)C(=O)NCC2 [8B, N-(3-bromobenzyl)-N-methyl-1-oxo-1,2,3,4-tetrahydroisoquinoline-7-sulfonamide] | 535 | > 30600 | 873 | – | – | – |
| 16 (≈ 5.84 µg/mL) | 0.05 | 2.7 | > 300 | > 300 | 2700 | – | – | – | – | – | – | CN(Cc1cccc(Cl)c1)S(=O)(=O)c1ccc2c(c1)C(=O)NCC2 [8A, N-(3-chlorobenzyl)-N-methyl-1-oxo-1,2,3,4-tetrahydroisoquinoline-7-sulfonamide] | 486 | > 30600 | 515 | – | – | – |
| 172 (≈ 50.8 µg/mL) | 0.12 | 2.5 | 8.5 | 39.5 | > 5000 | – | – | – | – | – | – | O=C(Cc1cccc(F)c1)Nc1[nH]ncc1-c1ccccc1 [2B, 2-(3-fluorophenyl)-N-(4-phenyl-1H-pyrazol-5-yl)acetamide] | 4370 | > 30600 | 11300 | – | – | – |
| 100 (≈ 37.9 µg/mL) | 0.003 | 2 | < 3 | < 1 | ~1160 | – | – | – | – | good | high | COc1ccc(C(=O)Nc2ccc(CNC(=O)c3ccnn3C)cc2C)cn1 [7A, 6-methoxy-N-(2-methyl-4-((1-methyl-1H-pyrazole-5-carboxamido)methyl)phenyl)nicotinamide] | 1270 | 23200 | 1140 | – | – | – |
| 43 (≈ 19.7 µg/mL) | 0.016 | 3.8 | > 300 | 171.6 | 2700 | – | – | – | – | – | – | O=C(NCCCn1ccnc1)NC1C(=O)Nc2ccccc2SC1c1cc(F)ccc1F (stereo not shown) [9B, 1-(3-(1H-imidazol-1-yl)propyl)-3-(2-(2,5-difluorophenyl)-4-oxo-2,3,4,5-tetrahydrobenzo[b][1,4]thiazepin-3-yl)urea] | 475 | > 30600 | 483 | – | – | – |
| 22 (≈ 9.07 µg/mL) | 0.011 | 4.6 | 101 | 71.1 | 294 | – | – | – | – | – | – | Cc1nc(C(=O)NC(C)c2cccc3ccccc23)c(NC(=O)Cc2ccccc2)[nH]1 (stereo not shown) [5B, 2-methyl-N-(1-(naphthalen-1-yl)ethyl)-5-(2-phenylacetamido)-1H-imidazole-4-carboxamide] | 158 | > 30600 | 68 | – | – | – |
| > 1000 | 0.2 | 2.5 | 35.5 | 218.6 | ~223 | – | – | – | – | – | – | CN(CC1CCCC(=O)N1)c1cc(OCc2ccccc2)nc(-c2nccn2C)n1 (stereo not shown) [3B, 6-(((6-(benzyloxy)-2-(1-methyl-1H-imidazol-2-yl)pyrimidin-4-yl)(methyl)amino)methyl)piperidin-2-one] | 510 | > 30600 | 645 | – | – | – |
